Measured values published in PubChem BioAssay (NCI).
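Cultured in 96-well plates, cells were exposed to test compound for 48 hours across five concentrations. At the TGI there is no net growth.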

Legend:
Assay in all cases: NCI-60 cell line screen, 48 h
[1] = system: UACC-62 melanoma
[2] = system: NCI-H226 lung
[3] = system: PC-3 prostate
[4] = system: CAKI-1 renal
[5] = system: SK-MEL-2 melanoma
[6] = system: OVCAR-3 ovarian
[7] = system: MDA-N
[8] = system: MCF7 breast
[9] = system: MDA-MB-231 breast
[10] = system: HL-60(TB) leukemia
[11] = system: NCI-H23 lung
[12] = system: DU-145 prostate
[13] = system: HCT-15 colon
[14] = system: MOLT-4 leukemia
[15] = system: BT-549 breast
[16] = system: EKVX NSCLC
[17] = system: SF-268 CNS
[18] = system: SK-MEL-28 melanoma
[19] = system: LOX IMVI melanoma
[20] = system: M14 melanoma
[21] = system: UACC-257 melanoma
[22] = system: HOP-62 NSCLC
[23] = system: HT29 colon
[24] = system: HCT-116 colon
[25] = system: RPMI-8226 leukemia
[26] = system: SW-620 colon
[27] = system: SF-539 CNS
[28] = system: MALME-3M melanoma
[29] = system: A498 renal
[30] = system: SR leukemia
[31] = system: NCI-H460 lung
[32] = system: TK-10 renal
[33] = system: COLO 205 colon
[34] = system: MDA-MB-435
[35] = system: SK-OV-3 ovarian
[36] = system: SNB-75 CNS
[37] = system: ACHN renal
[38] = system: 786-0 renal
[39] = system: U251 CNS
[40] = system: K-562 leukemia
[41] = system: HS 578T breast
[42] = system: KM12 colon
[43] = system: RXF 393 renal
[44] = system: NCI/ADR-RES ovarian
[45] = system: SN12C renal
[46] = system: IGROV1 ovarian
[47] = system: OVCAR-8 ovarian
[48] = system: OVCAR-5 ovarian
[49] = system: SF-295 CNS
[50] = system: CCRF-CEM leukemia
[51] = system: A549 NSCLC
[52] = system: SK-MEL-5 melanoma
[53] = system: SNB-19 CNS
[54] = system: UO-31 renal
[55] = system: NCI-H522 lung
[56] = system: OVCAR-4 ovarian
[57] = system: HOP-92 NSCLC
[58] = system: T-47D breast
[59] = system: HCC-2998 colon

## O=C(CN1CCN(c2ccccc2)CC1)c1ccc2[nH]c(=O)oc2c1
[1]
  TGI: > 100 µM
[2]
  TGI: > 100 µM
[3]
  TGI: > 100 µM
[4]
  TGI: > 100 µM
[5]
  TGI: > 100 µM
[6]
  TGI: > 100 µM
[7]
  TGI: > 100 µM
[8]
  TGI: > 100 µM
[9]
  TGI: > 100 µM
[10]
  TGI: > 100 µM
[11]
  TGI: > 100 µM
[12]
  TGI: > 100 µM
[13]
  TGI: > 100 µM
[14]
  TGI: > 100 µM
[15]
  TGI: > 100 µM
[16]
  TGI: > 100 µM
[17]
  TGI: > 100 µM
[18]
  TGI: > 100 µM
[19]
  TGI: > 100 µM
[20]
  TGI: > 100 µM
[21]
  TGI: > 100 µM
[22]
  TGI: > 100 µM
[23]
  TGI: > 100 µM
[24]
  TGI: > 100 µM
[25]
  TGI: > 100 µM
[26]
  TGI: > 100 µM
[27]
  TGI: > 100 µM
[28]
  TGI: > 100 µM
[29]
  TGI: > 100 µM
[30]
  TGI: > 100 µM
[31]
  TGI: > 100 µM
[32]
  TGI: > 100 µM
[33]
  TGI: > 100 µM
[34]
  TGI: > 100 µM
[35]
  TGI: > 100 µM
[36]
  TGI: > 100 µM
[37]
  TGI: > 100 µM
[38]
  TGI: > 100 µM
[39]
  TGI: > 100 µM
[40]
  TGI: > 100 µM
[41]
  TGI: > 100 µM
[42]
  TGI: > 100 µM
[43]
  TGI: > 100 µM
[44]
  TGI: > 100 µM
[45]
  TGI: > 100 µM
[46]
  TGI: > 100 µM
[47]
  TGI: > 100 µM
[48]
  TGI: > 100 µM
[49]
  TGI: > 100 µM
[50]
  TGI: > 100 µM

## CCC(=O)O[C@H]1CC[C@H]2[C@@H]3CCC4=CC(=O)C=C[C@]4(O)[C@H]3CC[C@]12C
[1]
  TGI: > 100 µM
[51]
  TGI: > 100 µM
[2]
  TGI: > 100 µM
[52]
  TGI: 19.9 µM
[3]
  TGI: 81.4 µM
[4]
  TGI: 88.4 µM
[5]
  TGI: 45.8 µM
[6]
  TGI: 68.4 µM
[7]
  TGI: > 100 µM
[53]
  TGI: > 100 µM
[8]
  TGI: > 100 µM
[9]
  TGI: 58.5 µM
[10]
  TGI: 37.6 µM
[11]
  TGI: > 100 µM
[12]
  TGI: 64.5 µM
[13]
  TGI: > 100 µM
[14]
  TGI: > 100 µM
[15]
  TGI: 57.5 µM
[16]
  TGI: > 100 µM
[17]
  TGI: > 100 µM
[54]
  TGI: > 100 µM
[55]
  TGI: > 100 µM
[18]
  TGI: > 100 µM
[19]
  TGI: 69.5 µM
[20]
  TGI: > 100 µM
[21]
  TGI: 26.8 µM
[22]
  TGI: > 100 µM
[23]
  TGI: 58.4 µM
[24]
  TGI: > 100 µM
[25]
  TGI: > 100 µM
[26]
  TGI: > 100 µM
[27]
  TGI: > 100 µM
[28]
  TGI: > 100 µM
[29]
  TGI: > 100 µM
[30]
  TGI: 80.5 µM
[31]
  TGI: 44.5 µM
[56]
  TGI: > 100 µM
[32]
  TGI: > 100 µM
[33]
  TGI: > 100 µM
[34]
  TGI: 10.2 µM
[35]
  TGI: > 100 µM
[37]
  TGI: > 100 µM
[57]
  TGI: 82.1 µM
[38]
  TGI: > 100 µM
[39]
  TGI: 47.4 µM
[40]
  TGI: > 100 µM
[41]
  TGI: > 100 µM
[42]
  TGI: 85.1 µM
[43]
  TGI: 52.4 µM
[44]
  TGI: 91.9 µM
[45]
  TGI: > 100 µM
[46]
  TGI: > 100 µM
[47]
  TGI: > 100 µM
[48]
  TGI: > 100 µM
[49]
  TGI: > 100 µM
[50]
  TGI: 17.2 µM

## COCCCN(Cc1cc(OC)c(OC)c(OC)c1)C(=S)Nc1cccc(Cl)c1
[1]
  TGI: 44.7 µM
[51]
  TGI: > 100 µM
[52]
  TGI: 30 µM
[3]
  TGI: 68.2 µM
[4]
  TGI: > 100 µM
[5]
  TGI: 52.1 µM
[6]
  TGI: > 100 µM
[7]
  TGI: 45.7 µM
[53]
  TGI: > 100 µM
[58]
  TGI: 49.2 µM
[8]
  TGI: 62.1 µM
[9]
  TGI: 83.5 µM
[10]
  TGI: 45.4 µM
[59]
  TGI: > 100 µM
[12]
  TGI: > 100 µM
[13]
  TGI: 61.1 µM
[14]
  TGI: 33.1 µM
[15]
  TGI: 64.9 µM
[16]
  TGI: 52.4 µM
[17]
  TGI: 63.6 µM
[54]
  TGI: 90.5 µM
[18]
  TGI: 85.1 µM
[19]
  TGI: 51.1 µM
[20]
  TGI: 51.8 µM
[21]
  TGI: 48.5 µM
[22]
  TGI: > 100 µM
[23]
  TGI: 50.2 µM
[24]
  TGI: 45.1 µM
[25]
  TGI: 37.4 µM
[26]
  TGI: > 100 µM
[27]
  TGI: > 100 µM
[29]
  TGI: > 100 µM
[31]
  TGI: > 100 µM
[56]
  TGI: 91.4 µM
[32]
  TGI: > 100 µM
[33]
  TGI: > 100 µM
[34]
  TGI: 48.4 µM
[35]
  TGI: > 100 µM
[36]
  TGI: 70.7 µM
[37]
  TGI: > 100 µM
[57]
  TGI: 53.7 µM
[38]
  TGI: 85.4 µM
[39]
  TGI: > 100 µM
[40]
  TGI: 69.2 µM
[42]
  TGI: 67.6 µM
[43]
  TGI: 96.4 µM
[44]
  TGI: 63.1 µM
[45]
  TGI: 92.5 µM
[46]
  TGI: > 100 µM
[47]
  TGI: 72.7 µM
[48]
  TGI: 75.1 µM
[49]
  TGI: > 100 µM
[50]
  TGI: 55.7 µM

## Cc1cnc(Cl)nc1C(C#N)c1nc2ccccc2s1 (centres undefined)
[51]
  TGI: > 100 µM
[2]
  TGI: 84.5 µM
[52]
  TGI: 20.1 µM
[4]
  TGI: 73.4 µM
[6]
  TGI: > 100 µM
[7]
  TGI: 68.1 µM
[53]
  TGI: > 100 µM
[58]
  TGI: > 100 µM
[9]
  TGI: > 100 µM
[11]
  TGI: 40.8 µM
[12]
  TGI: > 100 µM
[13]
  TGI: > 100 µM
[14]
  TGI: > 100 µM
[15]
  TGI: 51.2 µM
[16]
  TGI: > 100 µM
[17]
  TGI: 87.8 µM
[54]
  TGI: > 100 µM
[55]
  TGI: 16.4 µM
[18]
  TGI: > 100 µM
[19]
  TGI: 50.7 µM
[20]
  TGI: > 100 µM
[21]
  TGI: > 100 µM
[22]
  TGI: 54.6 µM
[23]
  TGI: > 100 µM
[24]
  TGI: 38.2 µM
[25]
  TGI: > 100 µM
[26]
  TGI: > 100 µM
[27]
  TGI: 63.8 µM
[28]
  TGI: 46 µM
[29]
  TGI: 84.2 µM
[31]
  TGI: > 100 µM
[56]
  TGI: > 100 µM
[32]
  TGI: 78.4 µM
[33]
  TGI: 28.5 µM
[34]
  TGI: > 100 µM
[35]
  TGI: 87.2 µM
[36]
  TGI: 53.5 µM
[37]
  TGI: 42.2 µM
[57]
  TGI: 35.4 µM
[38]
  TGI: 38.3 µM
[39]
  TGI: > 100 µM
[42]
  TGI: > 100 µM
[43]
  TGI: 48.1 µM
[44]
  TGI: 89.2 µM
[45]
  TGI: 63.2 µM
[46]
  TGI: > 100 µM
[47]
  TGI: > 100 µM
[48]
  TGI: 80.4 µM
[49]
  TGI: 62.2 µM

## CC1=C(C)C(=O)C2=C(OCCO2)C1=O
[51]
  TGI: 43.1 µM
[2]
  TGI: 45 µM
[52]
  TGI: 30.1 µM
[3]
  TGI: 52.9 µM
[4]
  TGI: 32.7 µM
[6]
  TGI: 32.3 µM
[7]
  TGI: 26.7 µM
[53]
  TGI: 32.7 µM
[58]
  TGI: 5.55 µM
[8]
  TGI: 63.5 µM
[9]
  TGI: 11.2 µM
[10]
  TGI: 15 µM
[11]
  TGI: 48 µM
[59]
  TGI: 35 µM
[12]
  TGI: 34 µM
[13]
  TGI: 35.1 µM
[14]
  TGI: 7.2 µM
[15]
  TGI: 37.7 µM
[16]
  TGI: 28.9 µM
[17]
  TGI: 69.7 µM
[54]
  TGI: 24 µM
[18]
  TGI: 30.2 µM
[19]
  TGI: 32.9 µM
[20]
  TGI: 35.3 µM
[21]
  TGI: 28.4 µM
[22]
  TGI: 33.1 µM
[23]
  TGI: 44.3 µM
[24]
  TGI: 13.5 µM
[25]
  TGI: 7.08 µM
[26]
  TGI: 45.3 µM
[27]
  TGI: 35 µM
[28]
  TGI: 29.7 µM
[29]
  TGI: 38.7 µM
[30]
  TGI: 20.3 µM
[31]
  TGI: 40.2 µM
[32]
  TGI: 32.6 µM
[33]
  TGI: 33.1 µM
[34]
  TGI: 7.76 µM
[35]
  TGI: 34.6 µM
[37]
  TGI: 55.1 µM
[57]
  TGI: 6.96 µM
[38]
  TGI: 44.6 µM
[39]
  TGI: 31.5 µM
[42]
  TGI: 34.2 µM
[44]
  TGI: 21.1 µM
[45]
  TGI: 34.8 µM
[46]
  TGI: 5.66 µM
[47]
  TGI: 9.34 µM
[48]
  TGI: 36.4 µM
[49]
  TGI: 33 µM
[50]
  TGI: 8.84 µM
